From patent publication US20040092528A1, “Agent for modulating excitatory synaptic transmission comprising a compound having alpha7 nicotinic acetylcholine receptor activation property” (priority 2000, published 2004)
Where two headings read alike, the source gives them in different places.

Assays:
[1] = test system: CA1 neurones in rat hippocampal slices; assay: EPSP recording (amplitude, slope, quantal content) in CA1 neurones in rat hippocampal slices; assay type: cell-based; settings: for increase in EPSP slope: dose-response series
CA1 neurones [2] = assay: Membrane potential and input resistance of CA1 neurones; assay type: cell-based, rat; settings: FK960 94 nM and 100 nM, n=11, average exposure 30 mins
CA1 neurones [3] = assay: GABAergic inhibitory post-synaptic current (IPSC) in voltage clamped CA1 neurones; assay type: cell-based, rat
CA1 neurones [4] = assay: Excitatory post-synaptic current (EPSC) in CA1 neurones voltage clamped at −70 mV; assay type: cell-based, rat
[5] = molecular target: α7 nicotinic ACh receptor (Rattus norvegicus, UniProt Q05941); assay: Effect of FK960 on EPSP amplitude in the presence of α7 nicotinic ACh receptor antagonists; assay type: cell-based
Sequence of α7 nicotinic ACh receptor (Q05941 23-502): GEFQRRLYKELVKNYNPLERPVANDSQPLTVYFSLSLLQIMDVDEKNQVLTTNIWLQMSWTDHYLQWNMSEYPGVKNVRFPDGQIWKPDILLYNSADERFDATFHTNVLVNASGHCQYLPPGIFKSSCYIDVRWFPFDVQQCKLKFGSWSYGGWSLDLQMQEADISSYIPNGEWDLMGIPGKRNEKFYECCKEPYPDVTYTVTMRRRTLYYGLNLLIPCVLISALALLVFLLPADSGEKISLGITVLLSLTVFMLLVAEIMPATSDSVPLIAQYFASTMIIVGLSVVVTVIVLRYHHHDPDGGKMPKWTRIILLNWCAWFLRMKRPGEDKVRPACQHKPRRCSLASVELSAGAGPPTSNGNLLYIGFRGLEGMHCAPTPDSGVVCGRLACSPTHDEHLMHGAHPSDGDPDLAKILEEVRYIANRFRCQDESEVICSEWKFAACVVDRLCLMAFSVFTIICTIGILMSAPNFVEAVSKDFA

cholinergic receptors = assay: Displacement of radiolabelled ligands with high affinity to cholinergic receptors; assay type: binding; settings: a number of assays
rats = rats in vivo; cited from earlier work
guinea-pig hippocampus = settings: cited from earlier work
rat hippocampus = settings: cited from earlier work
[6] = one CA1 neurone (FIG. 1), 100 nM FK960

## CC(=O)N1CCN(NC(=O)c2ccc(F)cc2)CC1 [FK960, N-(4-acetyl-1-piperazinyl)-p-fluorobenzamide monohydrate]
[1]; 0, 50, 100, 200 nM FK960, EPSP slope
  dose-response relationship (shape): bell-shaped
[1]; 100 nM FK960, 21 min, n=9 neurones
  increase in mean EPSP amplitude: 65%
[1]; 100 nM FK960, 21 min, n=9 neurones, 2.3 mV before
  mean EPSP amplitude: 3.8 mV
[1]; 100 nM FK960, 21 minutes, pooled neurones
  mean increase in 1/CV^2 (quantal content): 53%
[1]; 100 nM FK960, 21 minutes, 6.4 before
  1/CV^2 (quantal content), mean: 9.8
[1]; 100 nM FK960, after 21 mins, n=9
  increase in mean EPSP slope: 51%
[1]; 100 nM FK960, after 21 mins, n=9, 357.8 mV/s before
  mean EPSP slope: 540.5 mV/s
[1]; 4 neurones, 20-30 min after exposure to 100 nM FK960, 0.65 before
  frequency of spontaneous EPSPs: 0.54 spontaneous EPSP/sec
[1]; after 21 minutes exposure to 100 nM FK960, 7 neurones, 0.39 mV before
  mean quantum size: 0.42 mV
[1]; after 27 mins in FK960, n=7
  increase in EPSP amplitude: 64%
[1]; after 27 mins in FK960, n=7, 2.2 mV before
  EPSP amplitude: 3.6 mV
[1]; 50 nM FK960
  increase in EPSP slope: smaller and not significant
[1]; 100 nM FK960, n=5, after 21 mins, control aCSF 11%
  increase in EPSP slope: 55%
[1]; 200 nM FK960
  increase in EPSP slope: smaller and not significant
[1]; [6]
  increase in mean EPSP amplitude: 123%
  rise in quantal content: 109%
[1]; one CA1 neurone (FIG. 1), 100 nM FK960, n=287 EPSPs, 2.6 mV in control aCSF
  mean EPSP amplitude: 5.8 mV
[1]; one CA1 neurone (FIG. 1), 21 min 40 sec after 100 nM FK960
  increase in slope of the rising phase of the averaged EPSP: 127%
[1]; one CA1 neurone (FIG. 1), 21 min 40 sec after 100 nM FK960, 326.7 mV/s before
  slope of the rising phase of the averaged EPSP: 742.8 mV/s
[1]; one CA1 neurone (FIG. 1), after 20 mins in 100 nM FK960, 6.4 before
  quantal content (1/CV^2): 13.4
[1]; one CA1 neurone (FIG. 1), after 21 min in 100 nM FK960, 2.6 mV (n=50) before
  mean EPSP amplitude: 5.5 mV
CA1 neurones [2]; 175.3 MΩ in control aCSF
  input resistance: 164.2 MΩ
CA1 neurones [2]; −60.3 mV in control aCSF
  resting membrane potential: −59.4 mV
CA1 neurones [3]; 100 nM FK960
  effect on the IPSC: no significant effect
CA1 neurones [3]; 3 experiments, FK960, 48 pA in control aCSF
  Mean IPSC amplitude: 46 pA
CA1 neurones [3]; one CA1 neurone (FIG. 4), 21 minutes in FK960, 39 pA in control aCSF
  IPSC peak amplitude: 38 pA
CA1 neurones [4]; 4 experiments, 20-22 mins exposure to 100 nM FK960, 22.2 ms before
  EPSC decay time constant τEPSC: 28.4 ms
CA1 neurones [4]; 4 experiments, 20-22 mins exposure to 100 nM FK960, 98.3 pA before
  EPSC amplitude: 158.3 pA
CA1 neurones [4]; one neurone (FIG. 5C), FK960, 103 pA before
  EPSC amplitude: 175 pA
[5]
  increase in mean EPSP amplitude: 11%
  mean EPSP amplitude: 2.0 mV
[5]; 21 minutes exposure to 100 nM FK960 in 100 nM MLA, 5 CA1 neurones, unchanged
  mean EPSP amplitude: 2.6 mV
[5]; FK960 in 10 nM MLA, 21 minutes, n=3, from 3.1 mV
  rise in EPSP amplitude: 10%
Cholinergic receptors
  displacement of radiolabelled ligands with high affinity to cholinergic receptors: failed to displace
rats
  effect on scopolamine-induced cognitive deficits: reverse scopolamine-induced cognitive deficits
guinea-pig hippocampus; guinea pig hippocampus, 100 nM FK960
  effect on magnitude of long-term potentiation: significantly increased the magnitude of long-term potentiation
guinea-pig hippocampus; guinea-pig hippocampus in vitro
  effect on magnitude of long-term potentiation: increase the magnitude of long-term potentiation
Rat hippocampus
  effect on amplitude of the un-potentiated population spike: increases the amplitude of the un-potentiated population spike

## α-bungarotoxin [reference compound]
[5]
  effect of antagonist on the action of FK960 on the EPSP: attenuated
  mean EPSP amplitude: 1.6 mV

## O=C(c1ccc2nccnc2c1)N1CCCCC1 [FR212436, 1-(quinoxalin-6-ylcarbonyl)piperidine]
CA1 neurones [4]; 200 μM FR212436 for 20 min, n=3, 15.0 ms before
  EPSC decay time constant τEPSC: 22.4 ms
CA1 neurones [4]; 200 μM FR212436 for 20 min, n=3, 84 pA before
  EPSC amplitude: 181.3 pA
CA1 neurones [4]; 2 mM FR212436 for 5-10 min, n=3, 21.5 ms before
  EPSC decay time constant τEPSC: 46.7 ms
CA1 neurones [4]; 2 mM FR212436 for 5-10 min, n=3, 73.7 pA before
  EPSC amplitude: 239.7 pA
CA1 neurones [4]; one neurone (FIG. 5A), FR212436 200 μM, 42 pA before
  EPSC amplitude: 95 pA
CA1 neurones [4]; one neurone (FIG. 5B), FR212436 2 mM, 87 pA before
  EPSC amplitude: 247 pA
